The text below walks through data of patent US9522947B2, “Peptidomimetic macrocycles” (Aileron Therapeutics, Inc., priority 2011, dated 2016).

Positions of bridges follow the written chain, without caps; N, C: chain ends. Non-standard residues stand in square brackets, D forms with d. Residues, ends and D or L forms follow the SMILES beside them. R8 = C=CCCCCCC[C@@](C)(N)C(=O)O; S5 = C=CCCC[C@](C)(N)C(=O)O; Nle = CCCC[C@H](N)C(=O)O

One series in a line: Figure 9. The text has this: Table printed on a drawing sheet, Figure 9
Footnotes: ** literature values
First reader's note: The Tesamorelin rows are literature values, and their species, dose and route are printed inside the label cell.

The conditions of series [1]: cited from earlier work.
The test system of another series is growth hormone. As to the kind of experiment: Plasma PD study in rats: growth hormone production/release. Conditions: FIG. 10. In kind it is in vivo, Sprague-Dawley rats. As to the method:
Five peptidomimetic macrocycles of the invention (SP-1, SP-6, SP-8, SP-21, SP-32), as well as sermorelin, were studied to determine pharmacokinetic and pharmacodynamic parameters in rats. Male Sprague-Dawley rats (300 g, non-fasted, cannulated) were used. The study had three arms: IV administration, SC administration, and SC administration (vehicle control). For experiments using sermorelin, a dose level of 3 mg/kg IV/SC bolus was used (dose volume of 3 mL/kg dose and dose concentration of 1 mg/mL). The vehicle used was: 10 wt % N, N-Dimethylacetamide, 10 wt % DMSO, 2 wt % Solutol HS 15 in water for injection containing 45 mg/mL (4.5 wt %) Mannitol and 25 mM (0.38 wt %) Histidine (pH 7.5; 320 mOsm/kg). The peptide was first dissolved at high concentration in DMA and DMSO before a second dilution in Solutol vehicle.
For experiments using peptidomimetic macrocycles, 0.1 mL of DMA and 0.1 mL of DMSO were used to combine with each mg of macrocycle (˜4.3-4.5 mg of macrocycle used in each experiment). Sonication was used to ensure complete solubilization. 0.8 mL of Solutol vehicle was used for each mg of macrocycle in DMA/DMSO. The solutions were mixed gently with pipet or light vortexing. Fresh vials were used for each day of dosing, and macrocycles were stored solid at −20° C. prior to formulation. […]

Consider `CCCC[C@H](NC(=O)[C@@H](NC(=O)[C@H](CC(=O)O)NC(=O)[C@H](CCC(N)=O)NC(=O)[C@H](CC(C)C)NC(=O)[C@]1(C)CCCC=CCCCCCC[C@@](C)(NC(=O)[C@H](CC(C)C)NC(=O)[C@@H](NC(=O)[C@H](CCCCN)NC(=O)[C@H](CCCNC(=N)N)NC(=O)[C@H](Cc2ccc(O)cc2)NC(=O)[C@H](CO)NC(=O)[C@]2(C)CCCC=CCCC[C@](C)(NC(=O)[C@H](CC(=O)O)NC(=O)[C@@H](C)NC(=O)[C@@H](N)Cc3ccc(O)cc3)C(=O)N[C@@H]([C@@H](C)CC)C(=O)N[C@@H](Cc3ccccc3)C(=O)N[C@@H]([C@@H](C)O)C(=O)N2)C(C)C)C(=O)N[C@@H](CCC(N)=O)C(=O)N[C@@H](CC(C)C)C(=O)N[C@@H](CO)C(=O)N[C@@H](C)C(=O)N[C@@H](CCCNC(=N)N)C(=O)N[C@@H](CCCCN)C(=O)N1)[C@@H](C)CC)C(=O)N[C@@H](CO)C(=O)N[C@@H](CCCNC(=N)N)C(N)=O` [SP-6] (H-Y[dA]D[S5]IFT[S5]SYRKVL[R8]QLSARK[S5]LQDI[Nle]SR-NH2; staple 4-8, 15-22), for which, in the series “Figure 9”, the “AUCinf |” value is 23477 ng·h/mL, the “Clp |” value worked out at 2.13 mL/min/kg, the “MRT | hr” value was 3.7 h and the “Vdss |” value was found to be 0.474 L/kg. For the same compound, the “t 1/2 | hr” value in “Figure 9” was 20.6 h.
`CC/C=C/CC(=O)N[C@@H](Cc1ccc(O)cc1)C(=O)N[C@@H](C)C(=O)N[C@@H](CC(=O)O)C(=O)N[C@@H](C)C(=O)N[C@H](C(=O)N[C@@H](Cc1ccccc1)C(=O)N[C@H](C(=O)N[C@@H](CC(N)=O)C(=O)N[C@@H](CO)C(=O)N[C@@H](Cc1ccc(O)cc1)C(=O)N[C@@H](CCCNC(=N)N)C(=O)N[C@@H](CCCCN)C(=O)N[C@H](C(=O)N[C@@H](CC(C)C)C(=O)NCC(=O)N[C@@H](CCC(N)=O)C(=O)N[C@@H](CC(C)C)C(=O)N[C@@H](CO)C(=O)N[C@@H](C)C(=O)N[C@@H](CCCNC(=N)N)C(=O)N[C@@H](CCCCN)C(=O)N[C@@H](CC(C)C)C(=O)N[C@@H](CC(C)C)C(=O)N[C@@H](CCC(N)=O)C(=O)N[C@@H](CC(=O)O)C(=O)N[C@H](C(=O)N[C@@H](CCSC)C(=O)N[C@@H](CO)C(=O)N[C@@H](CCCNC(=N)N)C(=O)N[C@@H](CCC(N)=O)C(=O)N[C@@H](CCC(N)=O)C(=O)NCC(=O)N[C@@H](CCC(=O)O)C(=O)N[C@@H](CO)C(=O)N[C@@H](CC(N)=O)C(=O)N[C@@H](CCC(N)=O)C(=O)N[C@@H](CCC(=O)O)C(=O)N[C@@H](CCCNC(=N)N)C(=O)NCC(=O)N[C@@H](C)C(=O)N[C@@H](CCCNC(=N)N)C(=O)N[C@@H](C)C(=O)N[C@@H](CCCNC(=N)N)C(=O)N[C@@H](CC(C)C)C(N)=O)[C@@H](C)CC)C(C)C)[C@@H](C)O)[C@@H](C)CC` [Tesamorelin, dog 0.1 µg/kg IV**]: in “Figure 9”, the “AUCinf |” value came out at 5301 ng·h/mL and the “t 1/2 | hr” value was 0.4 h.
In the case of `CCCC[C@H](NC(=O)[C@@H](NC(=O)[C@H](CC(=O)O)NC(=O)[C@H](CCC(N)=O)NC(=O)[C@H](CC(C)C)NC(=O)[C@H](CC(C)C)NC(=O)[C@H](CCCCN)NC(=O)[C@H](CCCNC(=N)N)NC(=O)[C@]1(C)CCCC=CCCCCCC[C@@](C)(NC(=O)[C@H](CCCNC(=N)N)NC(=O)[C@H](Cc2ccc(O)cc2)NC(=O)[C@H](CO)NC(=O)[C@H](CC(N)=O)NC(=O)[C@@H](NC(=O)[C@H](Cc2ccccc2)NC(=O)[C@@H](NC(=O)[C@H](C)NC(=O)[C@H](CC(=O)O)NC(=O)[C@@H](C)NC(=O)[C@@H](N)Cc2ccc(O)cc2)[C@@H](C)CC)[C@@H](C)O)C(=O)N[C@@H](C(C)C)C(=O)N[C@@H](CC(C)C)C(=O)NCC(=O)N[C@@H](CCC(N)=O)C(=O)N[C@@H](CC(C)C)C(=O)N[C@@H](CO)C(=O)N1)[C@@H](C)CC)C(=O)N[C@@H](CO)C(=O)N[C@@H](CCCNC(=N)N)C(N)=O` [SP-32] (H-Y[dA]DAIFTNSYR[R8]VLGQLS[S5]RKLLQDI[Nle]SR-NH2; staple 12-19), in the series “Figure 9”, the “Clp |” value was found to be 1.35 mL/min/kg, the “MRT | hr” value was 2.3 h, the “Vdss |” value turned out to be 0.19 L/kg and the “t 1/2 | hr” value stood at 9.7 h.
Regarding “GHRH: Human GHRH (Growth Hormone-Releasing Hormone), a 44-amino-acid peptide”, the “half-life of GHRH after intravenous injection” value in series [1] is 0.167 to 0.2 h.
As to `CCCC[C@H](NC(=O)[C@@H](NC(=O)[C@]1(C)CCCC=CCCC[C@](C)(NC(=O)[C@H](CCCNC(=N)N)NC(=O)[C@H](C)NC(=O)[C@H](CO)NC(=O)[C@H](CC(C)C)NC(=O)[C@H](CCC(N)=O)NC(=O)CNC(=O)[C@H](CC(C)C)NC(=O)[C@@H](NC(=O)[C@]2(C)CCCC=CCCCCCC[C@@](C)(NC(=O)[C@H](C)NC(=O)[C@H](CC(=O)O)NC(=O)[C@@H](C)NC(=O)[C@@H](N)Cc3ccc(O)cc3)C(=O)N[C@@H](Cc3ccccc3)C(=O)N[C@@H]([C@@H](C)O)C(=O)N[C@@H](CC(N)=O)C(=O)N[C@@H](CO)C(=O)N[C@@H](Cc3ccc(O)cc3)C(=O)N[C@@H](CCCNC(=N)N)C(=O)N2)C(C)C)C(=O)N[C@@H](CC(C)C)C(=O)N[C@@H](CC(C)C)C(=O)N[C@@H](CCC(N)=O)C(=O)N1)[C@@H](C)CC)C(=O)N[C@@H](CO)C(=O)N[C@@H](CCCNC(=N)N)C(N)=O` [SP-21] (H-Y[dA]DA[R8]FTNSYR[S5]VLGQLSAR[S5]LLQ[S5]I[Nle]SR-NH2; staple 5-12, 21-25), in “Figure 9”, the “Clp |” value is 1.65 mL/min/kg, the “MRT | hr” value amounted to 5.3 h, the “Vdss |” value was determined as 0.524 L/kg and the “t 1/2 | hr” value is 10.1 h.
In the case of `CCCC[C@@H]1NC(=O)[C@H]([C@@H](C)CC)NC(=O)[C@H](CC(=O)O)NC(=O)[C@H](CCC(N)=O)NC(=O)[C@H](CC(C)C)NC(=O)[C@H](CC(C)C)NC(=O)[C@](C)(NC(=O)[C@H](CCCNC(=N)N)NC(=O)[C@H](C)NC(=O)[C@H](CO)NC(=O)[C@H](CC(C)C)NC(=O)[C@H](CCC(N)=O)NC(=O)CNC(=O)[C@H](CC(C)C)NC(=O)[C@@H](NC(=O)[C@H](CCCCN)NC(=O)[C@H](CCCNC(=N)N)NC(=O)[C@H](Cc2ccc(O)cc2)NC(=O)[C@H](CO)NC(=O)[C@]2(C)CCCC=CCCC[C@](C)(NC(=O)[C@H](CC(=O)O)NC(=O)[C@@H](C)NC(=O)[C@@H](N)Cc3ccc(O)cc3)C(=O)N[C@@H]([C@@H](C)CC)C(=O)N[C@@H](Cc3ccccc3)C(=O)N[C@@H]([C@@H](C)O)C(=O)N2)C(C)C)CCCCCCC=CCCC[C@@](C)(C(=O)N[C@@H](CCCNC(=N)N)C(N)=O)NC1=O` [SP-8] (H-Y[dA]D[S5]IFT[S5]SYRKVLGQLSAR[R8]LLQDI[Nle][S5]R-NH2; staple 4-8, 21-28), in the series with growth hormone, the “stimulation of growth hormone production” value is “stimulation of growth hormone production”.
